Source: ChEMBL document CHEMBL1177720, “Selective hexapeptide agonists and antagonists for human complement C3a receptor” (J Med Chem, 2010)
Values belong to the compound of their own block, whether it stands above or below them. Activity calls are given as the source filed them. The rule behind the calls is not given here. Peptide text beside a SMILES is read from it.

What was measured:
[1] = biological target: T1, C3a anaphylatoxin chemotactic receptor (Homo sapiens) (UniProt Q16581); assay: Displacement of [125I-C3a] from C3a receptor in human PBMC at 1 mM by scintillation counting
T1 sequence (whole entry): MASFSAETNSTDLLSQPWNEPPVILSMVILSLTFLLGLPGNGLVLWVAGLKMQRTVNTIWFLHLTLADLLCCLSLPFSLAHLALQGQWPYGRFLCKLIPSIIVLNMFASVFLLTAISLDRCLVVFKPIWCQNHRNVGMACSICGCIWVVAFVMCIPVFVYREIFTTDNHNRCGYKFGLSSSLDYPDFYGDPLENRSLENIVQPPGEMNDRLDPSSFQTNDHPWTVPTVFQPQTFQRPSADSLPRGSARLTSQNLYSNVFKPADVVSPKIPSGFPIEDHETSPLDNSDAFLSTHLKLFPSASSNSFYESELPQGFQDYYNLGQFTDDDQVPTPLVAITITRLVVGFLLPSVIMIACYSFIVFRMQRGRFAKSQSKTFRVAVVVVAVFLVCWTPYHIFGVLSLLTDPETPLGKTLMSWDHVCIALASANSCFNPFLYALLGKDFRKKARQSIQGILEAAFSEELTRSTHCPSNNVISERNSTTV

[2] = biological target: T2, C5a anaphylatoxin chemotactic receptor 1 (Homo sapiens) (UniProt P21730); assay: Displacement of […] from C5a receptor in human PBMC at 1 mM by scintillation counting
T2 sequence (whole entry): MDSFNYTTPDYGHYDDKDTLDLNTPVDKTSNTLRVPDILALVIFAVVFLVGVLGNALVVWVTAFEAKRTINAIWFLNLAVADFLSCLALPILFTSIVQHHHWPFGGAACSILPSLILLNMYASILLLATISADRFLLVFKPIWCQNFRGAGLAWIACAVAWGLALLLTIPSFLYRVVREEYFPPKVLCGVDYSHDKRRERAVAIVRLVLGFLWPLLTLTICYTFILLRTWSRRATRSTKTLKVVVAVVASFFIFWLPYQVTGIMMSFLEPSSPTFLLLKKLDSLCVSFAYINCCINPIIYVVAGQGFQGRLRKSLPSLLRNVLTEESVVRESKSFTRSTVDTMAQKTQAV

[3] = biological target: T1, C3a anaphylatoxin chemotactic receptor (Homo sapiens); assay: Agonist activity at human C3a receptor in human U937 cells assessed as induction of intracellular calcium release at 1 mM; format: functional, cell-based; conditions: U-937
[4] = biological target: T1, C3a anaphylatoxin chemotactic receptor (Homo sapiens); assay: Agonist activity at human C3a receptor in human U937 cells assessed as induction of intracellular calcium release at 10 uM; format: functional, cell-based; conditions: U-937
[5] = biological target: T3, C3a anaphylatoxin chemotactic receptor (Homo sapiens, UniProt Q16581); assay: Displacement of [125I-C3a] from C3a receptor in human PBMC by scintillation counting; conditions: read-out: IC50
T3 sequence (Q16581 whole entry): T1 sequence (whole entry)

[6] = biological target: T3, C3a anaphylatoxin chemotactic receptor; assay: Antagonist activity at human C3a receptor in human U937 cells assessed as inhibition of intracellular calcium mobilization; format: functional, cell-based, U-937
[7] = biological target: T1, C3a anaphylatoxin chemotactic receptor (Homo sapiens); assay: Agonist activity at human C3a receptor in human U937 cells assessed as induction of intracellular calcium release at 100 uM; format: functional, cell-based; conditions: U-937
Homo sapiens = species: Homo sapiens; assay: Selectivity for human C3a receptor over human C5a receptor

SMILES: CSCC[C@H](NC(=O)[C@@H]1CCCN1C(=O)[C@H](CCCCN)NC(=O)[C@H](Cc1cnc[nH]1)NC(=O)[C@H](CO)NC(=O)[C@@H](N)Cc1ccc(O)cc1)C(=O)N1CCC[C@H]1C(=O)N[C@@H](CC(C)C)C(=O)N[C@H](C)C(=O)N[C@@H](CCCNC(=N)N)C(=O)O
Activity [1]: inactive
Activity [2]: inactive

SMILES: CC(=O)N[C@@H](Cc1ccccc1)C(=O)N[C@H]1CCCNC(=O)[C@H](CCCN=C(N)N)NC(=O)[C@H](Cc2c[nH]c3ccccc23)NC(=O)[C@@H](CC2CCCCC2)NC(=O)[C@@H]2CCCN2C1=O
Activity [3]: inactive
Activity [1]: inactive

SMILES: CC(C)C[C@H](NC(=O)[C@@H]1CCCN1C(=O)[C@@H](N)Cc1ccc(O)cc1)C(=O)N1CCC[C@H]1C(=O)N[C@@H](CCCNC(=N)N)C(=O)O (H-YPLPR-OH)
Activity [3]: inactive
Activity [4]: inactive
Activity [1]: inactive
Activity [2]: inactive

SMILES: N=C(N)NCCC[C@H](NC(=O)COCC(c1ccccc1)c1ccccc1)C(=O)O
Activity [3]: inactive
Activity [4]: inactive
IC50 [5]: 140 nM
IC50 [6]: 1300 nM
Activity [2]: inactive

Selectivity ratio (Homo sapiens): > 100
SMILES: CC(C)C[C@H](NC(=O)[C@@H](N)Cc1ccccc1)C(=O)N[C@H](C(=O)N[C@@H](CC1CCCCC1)C(=O)N[C@@H](C)C(=O)N[C@@H](CCCNC(=N)N)C(=O)O)[C@@H](C)O
Activity [3]: inactive
Activity [7]: inactive
IC50 [5]: 238 nM
IC50 [6]: 240 nM
Activity [2]: inactive
